The subject of the assay is HBV rcDNA. Description: HepDE19 assay with bDNA quantitation of HBV rcDNA. The assay is classed as cell-based, hepatitis B virus. The method, boiled down: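 HepDE19 cells (HepG2-derived, Tet-regulated HBV replication) were deprived of tetracycline and then exposed to compounds for 7 days at 37 °C in 0.5% DMSO, 8-point titration from 25 μM. rcDNA was quantified by bDNA and EC50/EC90 came from 4-parameter fits. CC50 was measured by CellTiter-Glo ATP content on replicate plates after 4 days.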

The mark [1] stands for this setting: Hepatitis B virus, HepDE19, HepDE19 assay, inhibition of formation of rcDNA, read-out: DE-19bDNA EC50.
The mark [2] stands for this setting: HepDE19 assay, inhibition of formation of rcDNA, read-out: DE-19bDNA EC50.
[3] abbreviates: read-out: DE-19bDNA EC50, HepDE19 assay, inhibition of formation of rcDNA.
Setting [4] is: HepDE19 assay, inhibition of formation of relaxed circular DNA (rcDNA), bDNA quantitation, read-out: DE-19bDNA EC50.
[5] abbreviates: Hepatitis B virus, HepDE19, read-out: DE-19bDNA EC50 (μM), HepDE19 assay, inhibition of formation of relaxed circular DNA (rcDNA), bDNA quantitation.

Read-outs that look alike come from different tables or passages of the source.

As to `CCCCN(Cc1c[nH]c(=O)c2ccccc12)C(=O)Nc1ccc(F)c(Cl)c1` [Compound 52, 1-Butyl-3-(3-chloro-4-fluorophenyl)-1-((1-oxo-1,2-dihydroisoquinolin-4-yl)methyl)urea], the EC50 under setting [1] was determined as 0.08 µM.
`CC(c1c[nH]c(=O)c2ccccc12)N(C[C@H](C)O)C(=O)Nc1ccc(F)c(Cl)c1` (single isomer, unassigned) [Compound 218]: the EC50 under setting [2] was found to be 0.08 µM.
Regarding `CC(c1c[nH]c(=O)c2cc(F)c(F)cc12)N(C)C(=O)Nc1ccc(F)c(Cl)c1` (single isomer, unassigned) [Compound 279, 3-(3-Chloro-4-fluorophenyl)-1-(1-(6,7-difluoro-1-oxo-1,2-dihydroisoquinolin-4-yl)ethyl)-1-methylurea], under setting [3], the concentration giving a half-maximal response (EC50) came out at 0.007 µM.
For `CC(c1c[nH]c(=O)c2ccccc12)N(CC1CCCC1)C(=O)Nc1ccc(F)c(Cl)c1` (single isomer, unassigned) [Compound 193, 3-(3-Chloro-4-fluorophenyl)-1-(cyclopentylmethyl)-1-(1-(1-oxo-1,2-dihydroisoquinolin-4-yl)ethyl)urea], the EC50 under setting [2] was found to be 0.01 µM.
For `CC(c1c[nH]c(=O)c2ccccc12)N(CCC(=O)N(C)C)C(=O)Nc1ccc(F)c(Cl)c1` (single isomer, unassigned) [Compound 106, 3-(3-(3-Chloro-4-fluorophenyl)-1-(1-(1-oxo-1,2-dihydroisoquinolin-4-yl)ethyl)ureido)-N,N-dimethylpropanamide], under setting [2], the EC50 is 0.08 µM.
Take `CC(c1c[nH]c(=O)c2c(F)cccc12)N(C)C(=O)Nc1ccc(F)c(Cl)c1` (single isomer, unassigned) [Compound 357, 3-(3-Chloro-4-fluorophenyl)-1-(1-(8-fluoro-1-oxo-1,2-dihydroisoquinolin-4-yl)ethyl)-1-methylurea]: the EC50 under setting [4] is 0.04 µM.
With `CC(c1c[nH]c(=O)c2cc(F)c(F)cc12)N(C)C(=O)Nc1ccc(F)c(F)c1` (single isomer, unassigned) [Compound 408, 1-(1-(6,7-Difluoro-1-oxo-1,2-dihydroisoquinolin-4-yl)ethyl)-3-(3,4-difluorophenyl)-1-methylurea], the EC50 under setting [4] was found to be 3.4 µM.
For `CC(c1cnc(S(C)(=O)=O)c2ccccc12)N(C)C(=O)Nc1ccc(F)c(Cl)c1` (single isomer, unassigned) [Compound 315, 3-(3-Chloro-4-fluorophenyl)-1-methyl-1-(1-(1-(methylsulfonyl)isoquinolin-4-yl)ethyl)urea], the half-maximal effective concentration (EC50) under setting [4] was 0.8 µM.
For `CC(c1c[nH]c(=O)c2cc(F)c(F)cc12)N(C)C(=O)Nc1ccccc1` (single isomer, unassigned) [Compound 398, 1-(1-(6,7-Difluoro-1-oxo-1,2-dihydroisoquinolin-4-yl)ethyl)-1-methyl-3-phenylurea], the EC50 (read-out: DE-19bDNA EC50, HepDE19 assay, inhibition of formation of relaxed circular DNA (rcDNA), bDNA quantitation) was 16 µM.
`CC(c1c[nH]c(=O)c2c(F)c(F)ccc12)N(C)C(=O)Nc1ccncc1` (single isomer, unassigned) [Compound 449, 1-(1-(7,8-Difluoro-1-oxo-1,2-dihydroisoquinolin-4-yl)ethyl)-1-methyl-3-(pyridin-4-yl)urea]: the EC50 under setting [5] was 15 µM.
As for `CC(c1cnc(N(C)C)c2ccccc12)N(C)C(=O)Nc1ccc(F)c(Cl)c1` (single isomer, unassigned) [Compound 233, 3-(3-Chloro-4-fluorophenyl)-1-(1-(1-(dimethylamino)isoquinolin-4-yl)ethyl)-1-methylurea], under setting [2], the EC50 is 14 µM.
For the compound `COc1ncc(CN(Cc2ccccc2)C(=O)Nc2ccc(F)c(Cl)c2)c2ccccc12` [Compound 48, 1-Benzyl-3-(3-chloro-4-fluorophenyl)-1-((1-methoxyisoquinolin-4-yl)methyl)urea], under setting [1], the EC50 came out at 2.1 µM.
For `CC(c1c[nH]c(=O)c2c(F)c(F)ccc12)N(C)C(=O)N[C@@H](C)c1ccccc1` (single isomer, unassigned) [Compound 487], the EC50 under setting [5] came to 23 µM.
Turning to `CCCCN(C(=O)Nc1ccc(F)c(Cl)c1)C(C)c1c[nH]c(=O)c2ccccc12` (single isomer, unassigned) [Compound 83, 1-Butyl-3-(3-chloro-4-fluorophenyl)-1-(1-(1-oxo-1,2-dihydroisoquinolin-4-yl)ethyl)urea], under setting [3], the EC50 was 0.86 µM.
For the compound `CC(c1c[nH]c(=O)c2ccccc12)N(Cc1cccnc1)C(=O)Nc1ccc(F)c(Cl)c1` (single isomer, unassigned) [Compound 306, 3-(3-Chloro-4-fluorophenyl)-1-(1-(1-oxo-1,2-dihydroisoquinolin-4-yl)ethyl)-1-(pyridin-3-ylmethyl) urea], the EC50 under setting [4] came out at 1 µM.
For the compound `CNC(=O)CCN(C(=O)Nc1ccc(F)c(Cl)c1)C(C)c1c[nH]c(=O)c2ccccc12` (single isomer, unassigned) [Compound 118, 3-(3-(3-Chloro-4-fluorophenyl)-1-(1-(1-oxo-1,2-dihydroisoquinolin-4-yl)ethyl)ureido)-N-methylpropanamide], the EC50 under setting [2] turned out to be 0.14 µM.
In the case of `CC(c1c[nH]c(=O)c2c(F)c(F)ccc12)N(C)C(=O)Nc1ccc(F)c(Cl)c1` (single isomer, unassigned) [Compound 331, 3-(3-Chloro-4-fluorophenyl)-1-(1-(7,8-difluoro-1-oxo-1,2-dihydroisoquinolin-4-yl)ethyl)-1-methylurea], under setting [4], the EC50 was 0.015 µM.
In the case of `CC(c1c[nH]c(=O)c2ccccc12)N(Cc1c[nH]nn1)C(=O)Nc1ccc(F)c(Cl)c1` (single isomer, unassigned) [Compound 267, 1-((2H-1,2,3-Triazol-4-yl)methyl)-3-(3-chloro-4-fluorophenyl)-1-(1-(1-oxo-1,2-dihydroisoquinolin-4-yl)ethyl)urea], the EC50 under setting [2] turned out to be 0.35 µM.
As for `Cc1cc(NC(=O)N(C)C(C)c2c(C)[nH]c(=O)c3ccccc23)ccc1F` (single isomer, unassigned) [Compound 236, 3-(4-Fluoro-3-methylphenyl)-1-methyl-1-(1-(3-methyl-1-oxo-1,2-dihydroisoquinolin-4-yl)ethyl)urea], the EC50 under setting [2] was 0.41 µM.
`CC(c1cnc(C#N)c2ccccc12)N(C)C(=O)Nc1ccc(F)c(Cl)c1` (single isomer, unassigned) [Compound 337, 3-(3-Chloro-4-fluorophenyl)-1-(1-(1-cyanoisoquinolin-4-yl)ethyl)-1-methylurea]: under setting [4], the EC50 stood at 0.25 µM.
`C[C@H](c1c[nH]c(=O)c2ccccc12)N(C)C(=O)Nc1cc(F)c(F)c(F)c1` [Compound 91, (R)-1-Methyl-1-(1-(1-oxo-1,2-dihydroisoquinolin-4-yl)ethyl)-3-(3,4,5-trifluorophenyl)urea]: the EC50 under setting [1] is 0.16 µM.
As for `CC(c1c[nH]c(=O)c2ccccc12)N(CCNCC(F)(F)F)C(=O)Nc1ccc(F)c(Cl)c1` (single isomer, unassigned) [Compound 163, 3-(3-Chloro-4-fluorophenyl)-1-(1-(1-oxo-1,2-dihydroisoquinolin-4-yl)ethyl)-1-(2-((2,2,2-trifluoroethyl)amino)ethyl)urea], the EC50 under setting [2] was 5.3 µM.
As to `CC(c1c[nH]c(=O)c2ccccc12)N(C)C(=O)Nc1ccc(F)c(Cl)c1` (racemic) [Compound 12, 3-(3-Chloro-4-fluorophenyl)-1-methyl-1-(1-(1-oxo-1,2-dihydroisoquinolin-4-yl)ethyl)urea], under setting [1], the EC50 worked out at 0.16 µM.

One may read the EC50 as the concentration at which the effect is half-maximal.

The values are drawn from US20230045421A1 (priority 2018, published 2023).
